Laboratory results taken from BigSolDB 2.1.

OCC1(O)OC[C@@H](O)[C@H](O)[C@@H]1O (stereo not given in full)
solubility (mole fraction)
Settings | 283.15 K | 288.15 K | 293.15 K | 298.15 K | 303.15 K | 308.15 K | 313.15 K | 318.15 K | 323.15 K
in ethanol | 0.00138 | 0.00168 | 0.00193 | 0.00219 | 0.00245 | 0.00288 | 0.00328 | 0.00395 | 0.00468
in isopropanol | 0.00038 | 0.00041 | 0.0006 | 0.00088 | 0.00121 | 0.0015 | 0.00171 | 0.00211 | 0.00261
in methanol | 0.00414 | 0.00553 | 0.00609 | 0.00758 | 0.00892 | 0.0101 | 0.0121 | 0.0155 | 0.0166
in n-propanol | 0.00038 | 0.00043 | 0.00062 | 0.00088 | 0.00127 | 0.00164 | 0.002 | 0.00238 | 0.00272
in water | 0.0976 | 0.106 | 0.116 | 0.124 | 0.135 | 0.146 | 0.155 | 0.166 | 0.175
